Measured values as given in publication PMC4411898, “Impact of kinesin Eg5 inhibition by 3,4-dihydropyrimidin-2(1H)-one derivatives on various breast cancer cell features” (BMC Cancer, 2015).

Experiments:
[1] = tested on: Fibroblasts (primary culture from healthy human dental pulp); conditions: fibroblasts, 72 h treatment, MTT
Protocol: MCF-7 cell line and primary culture of connective tissue cells were provided by the Laboratory of Morphology, University of Brasília (Brasília, BR). MDA-MB-231 cells were purchased from Rio de Janeiro Cell Bank (RJCB - Rio de Janeiro, BR). Cell line characterization and authentication was conducted by RJCB using short tandem repeat profiling. Primary culture cells were taken from healthy human dental pulp predominantly consisting of fibroblasts and were used as normal control cells. MCF-7 cells and fibroblasts were grown in complete DMEM and maintained at 37°C with 5% CO2. MDA-MB-231 cells were grown in Leibovitz L15 medium at 37°C without CO2. Culture media were supplemented with 10% fetal bovine serum and 25 μg/mL of gentamicin.
Cytotoxicity was determined using 3-(4,5-dimethylthiazol-2-yl)-2,5-diphenylterazolium bromide (MTT) according to the manufacturer’s instructions. Absorbance readings were measured by a spectrophotometer. Cell viability was normalized to control (vehicle only).

[2] = tested on: MCF-7 cells; assay: α-tubulin immunostaining, spindle formation; assay type: cell-based, human; conditions: for Monoastral Spindle (%) 24 h / Bipolar Spindle (%) 24 h / Mitotic spindle / microtubule organization (α-tubulin immunostaining): MCF-7, 24 h; for Monoastral Spindle (%) 24 h / Bipolar Spindle (%) 24 h / Bipolar Spindle (%) 48 h / Monoastral Spindle (%) 48 h: n = 300 dividing cells; for Monoastral Spindle (%) 24 h / Mitotic spindle / microtubule organization (α-tubulin immunostaining): 4m 1.0 mM, 4bt 0.8 mM, 4p 0.4 mM, 4bc 1.0 mM, 4x 0.8 mM; for Monoastral Spindle (%) 24 h: monastrol 0.1 mM; for Bipolar Spindle (%) 24 h / Bipolar Spindle (%) 48 h / Monoastral Spindle (%) 48 h: concentrations as E14; for Bipolar Spindle (%) 48 h / Monoastral Spindle (%) 48 h: MCF-7, 48 h
Protocol: Aliquots of 7 × 10^4 MCF-7 cells were seeded onto 12 mm round glass coverslips placed in the base of each well of a 24-well plate. After adhesion, cells were treated for 24 and 48 h with the pre-selected compounds at their maximum non-cytotoxic concentrations to normal cells or incubated with culture medium only for the same duration (negative control). Cells were washed with PBS, fixed with 3.7% formaldehyde, permeabilized with 0.1% Triton X-100 and blocked in PBS supplemented with 1% skimmed milk, 2.5% bovine serum albumin (BSA) and 8% fetal bovine serum (FBS) at room temperature. Cells were incubated overnight with mouse anti-α-tubulin antibody (1:500) at 4°C, followed by incubation with a secondary antibody: Alexa Fluor 488 rabbit anti-mouse IgG (1:400), for 1 hour at 37°C. Nuclei were stained with 300 nM DAPI. The coverslips were mounted with ProLong Gold Antifade and specimens observed under a laser scanning confocal microscope.
Table S1. Quantification of monopolar spindles occurred as a result of treatment with DHPM derivatives. MCF-7 control cells or cells treated for 24 or 48 h with 4m (1 mM), […]
antibody. The percentage of dividing cells showing presence of monoastral and bipolar spinles formation determined (n = 300).
Experimental Group Monoastral Spindle (%) Bipolar Spindle (%)

[3] = tested on: MCF-7 cells; assay: Apoptosis and necrosis assay (Annexin-V/PI flow cytometry), MCF-7; assay type: cell-based, human; conditions: 72 h; 4m 1.0 mM, 4bt 0.8 mM, 4p 0.4 mM, 4bc 1.0 mM, 4x 0.8 mM
Protocol: For proliferation assays, cells were treated with IC50 concentrations of each compound. Adherent and floating cells were harvested at the same tube and pelleted by centrifugation at 300 g for 5 minutes and stained. Data acquisition of these two fractions put together was performed on a FACSCalibur flow cytometer using CellQuest software and analysed using the FloJo Software. Untreated control cells and DHPMs-treated for 72 h cell samples were stained with Annexin-V-FITC or Annexin-V-Alexa Fluor® 680 and propidium iodide according to the manufacturer’s instructions.

[4] = tested on: MCF-7 cells; assay: CD44+/CD24- expression analysis, MCF-7; assay type: cell-based, human; conditions: 24 h; for CD44-/CD24- subpopulation, MCF-7 (mean ± SEM): 4m 1.0 mM, 4bt 0.8 mM, 4p 0.4 mM, 4bc 1.0 mM, 4x 0.8 mM, monastrol 1.0 mM; for CD44+/CD24+ subpopulation, MCF-7 (mean ± SEM) / CD44-/CD24+ subpopulation, MCF-7 (mean ± SEM) / CD44+/CD24- subpopulation, MCF-7 (mean ± SEM): concentrations as E28; for CD44+/CD24- subpopulation, MCF-7 (mean ± SEM): control 0.38 ± 0.18
Protocol: (§1) For proliferation assays, cells were treated with IC50 concentrations of each compound. Adherent and floating cells were harvested at the same tube and pelleted by centrifugation at 300 g for 5 minutes and stained. Data acquisition of these two fractions put together was performed on a FACSCalibur flow cytometer using CellQuest software and analysed using the FloJo Software. Expression level of CD44 and CD24 in treated and control MCF-7 or MDA-MB-231 cells was measured after 24 h of treatment.

[5] = tested on: MDA-MB-231 cells; assay: CD44+/CD24- expression analysis, MDA-MB-231; assay type: cell-based, human; conditions: 24 h; for CD44-/CD24- subpopulation, MDA-MB-231 (mean ± SEM): 4m 1.0 mM, 4bt 0.8 mM, 4p 0.4 mM, 4bc 1.0 mM, 4x 0.8 mM, monastrol 1.0 mM; for CD44-/CD24+ subpopulation, MDA-MB-231 (mean ± SEM) / CD44+/CD24+ subpopulation, MDA-MB-231 (mean ± SEM) / CD44+/CD24- subpopulation, MDA-MB-231 (mean ± SEM): concentrations as E32; for CD44+/CD24+ subpopulation, MDA-MB-231 (mean ± SEM): control 1.507 ± 0.47; for CD44+/CD24- subpopulation, MDA-MB-231 (mean ± SEM): untreated control 98.45 ± 0.47
Protocol: as §1

[6] = tested on: MCF-7 cells; assay: Cell cycle analysis (PI), MCF-7; assay type: cell-based, human; conditions: 4m 1 mM, 4bt 0.8 mM, 4p 0.4 mM, 4bc 1.0 mM, 4x 0.8 mM
Protocol: For proliferation assays, cells were treated with IC50 concentrations of each compound. Adherent and floating cells were harvested at the same tube and pelleted by centrifugation at 300 g for 5 minutes and stained. Data acquisition of these two fractions put together was performed on a FACSCalibur flow cytometer using CellQuest software and analysed using the FloJo Software. Control and DHPM-treated cells were harvested at 24, 48 and 72 h, resuspended in ice-cold PBS and fixed with 70% ethanol on ice. Cells were then washed with PBS, harvested and incubated with propidium iodide solution (0.1% Triton X-100, 10 μg/mL propidium iodide, 100 μg/mL DNase free RNase) for 10 min at 37°C. For analysis of cell populations in each cell cycle phase, the sub-G1 picks were excluded and the plots were generated by cell cycle platform data analysis by the FlowJo Software.

[7] = tested on: MCF-7 cells; assay: Morphological alterations under inverted light microscope, MCF-7; assay type: cell-based, human; conditions: 72 h, maximum non-cytotoxic concentration to normal cells
Protocol: Figure 2 DHPM derivatives cause severe morphological alterations on breast cancer cells. MCF-7 and MDA-MB-231 cells were treated with the maximum non-cytotoxic concentration to normal cells for 72 h and morphological alterations analyzed under an inverted light microscope. Cells with elongated morphology, adherent to the surface and normal size are shown by arrows. Cells with size reduction, absence of focal adhesion points, rounded morphology and detached from the surface where they had been seeded are shown by arrowheads.

Compound	Maximum non-cytotoxic concentration to normal cells [1]	Monoastral Spindle (%) 24 h [2]	Bipolar Spindle (%) 24 h [2]	Mitotic spindle / microtubule organization (α-tubulin immunostaining) [2]	Bipolar Spindle (%) 48 h [2]	Monoastral Spindle (%) 48 h [2]	Cell death by apoptosis, % of MCF-7 cell population [3]	CD44-/CD24- subpopulation, MCF-7 (mean ± SEM) [4]	CD44+/CD24+ subpopulation, MCF-7 (mean ± SEM) [4]	CD44-/CD24+ subpopulation, MCF-7 (mean ± SEM) [4]	CD44+/CD24- subpopulation, MCF-7 (mean ± SEM) [4]	CD44-/CD24- subpopulation, MDA-MB-231 (mean ± SEM) [5]	CD44-/CD24+ subpopulation, MDA-MB-231 (mean ± SEM) [5]	CD44+/CD24+ subpopulation, MDA-MB-231 (mean ± SEM) [5]	CD44+/CD24- subpopulation, MDA-MB-231 (mean ± SEM) [5]	Cell cycle effect, MCF-7, 48 h [6]	Morphological alterations, MCF-7 [7]
CCOC(=O)C1=C(C)NC(=S)NC1c1ccccc1O (stereo not shown) [Compound 4p]	0.4 mM	0%	0%	disruption of the microtubules	0%	0%	less pronounced manner	2.83 ± 0.59%	30.40 ± 9.78%	66.42 ± 10.57%	0.33 ± 0.20%	0.02 ± 0.009%	0.003 ± 0.003%	5.507 ± 1.13%	94.45 ± 1.13%	cell cycle arrest at G2/M	produced the same results
CC(=O)C1=C(C)NC(=O)NC1c1ccccc1[N+](=O)[O-] (stereo not shown) [Compound 4x]	0.8 mM	50.80%	49.20%	caused monoastral spindle formation	12.01%	87.99%	less pronounced manner	2.45 ± 0.52%	35.11 ± 19.33%	61.35 ± 20.83%	1.065 ± 0.97%	0.01 ± 0.003%	0.020 ± 0.0200%	6.08 ± 2.10%	93.88 ± 2.12%	cell cycle arrest at G2/M	no significant alterations
